Results as given in patent EP0379737A2, “Dihydropyridine derivatives for the treatment of angiospasm” (THE GREEN CROSS CORPORATION, priority 1988, dated 1990).

Assays:
[1] = Toxicity: LD50 determination in mice; details: mouse, in vivo; 10 to 11-week-old male mice, 3 to 5 mice per group; read-out: LD₅₀
Protocol: LD₅₀ was determined for Compound 2 as prepared in Reference Example 1 below using 10 to 11-week-old male mice (body weight: 14 to 16 g; 3 to 5 mice per group). AS a result, measured LD₅₀ values were more than 1,100 mg/kg at the lowest.

[2] = test system: coronarism induced by laser cauterization of the coronary artery; test: Preventive effect of premedication with coronary vasodilators on coronarism induced by laser cauterization of the coronary artery; type: in vivo; details: anesthetized dogs, drugs given 10 minutes before cauterization (TNG 100 µg i.c. + 50 µg/min d.i.v.; NC 30 µg/kg/min d.i.v.; Compound 2 10 µg/kg i.v.); for Degree of Stenosis (%) (m ± SE) 10 mins. After: 10 minutes after cauterization; for Degree of Stenosis (%) (m ± SE) 30 mins. After: 30 minutes after cauterization; for Degree of Stenosis (%) (m ± SE) Immediately After: immediately after cauterization
Protocol: Preventive effect of premedication of coronary vasodilators on coronarism induced by laser cauterization of the coronary artery was examined using dogs.
Twenty-three anesthetized dogs premediated with a coronary vasodilator [8 dogs in non-treated group (control group); 7 in nitroglycerin-treated (TNG) group (100 µg i.c. (intracoronary) + 50 µg/min d.i.v. (intravenous drip injection)); 5 in Nicorandil (NC) group (30 µg/kg/min d.i.v); and 8 in Compound 2 (hereinafter described) group (10 µg/kg i.v.)] were used. A 9F guiding catheter was inserted from the right common carotid artery into the 28th circumflex ramus extending from the anterior descending branch of the right common carotid artery. After intravenous injection of 250 U of heparin and 20 mg of lidocaine, a probe having an argon laser heating tip having a diameter of 1.5 mm (manufactured by Trimedyne Corp.) was inserted through the catheter, and 10 minutes after the administration of drugs the coronary vessel was cauterized under a condition of 4.5 W × […] under photofluoroscopic observation. Before the cauterization, immediately after the cauterization, and 10 minutes and 30 minutes after the cauterization, changes of the coronary artery were angiographically observed. The degree of stenosis (%) was calculated from the measured inner diameter each of the cauterized site and the normal site. The degree of stenosis of a site undergoing retardation of angiography was taken as 99%.

| SMILES | LD50 [1] [mg/kg] | Degree of Stenosis (%) (m ± SE) 10 mins. After [2] | Degree of Stenosis (%) (m ± SE) 30 mins. After [2] | Degree of Stenosis (%) (m ± SE) Immediately After [2] |
| --- | --- | --- | --- | --- |
| COC(=O)C1=C(C)NC(C)=C(C(=O)OCCc2ccc(N3CCN(C(c4ccccc4)c4ccccc4)CC3)cc2)C1c1cccc([N+](=O)[O-])c1 (stereo not shown) [Compound 2, 2-[p-(4-benzhydrylpiperazino)phenyl]ethyl methyl 2,6-dimethyl-4-(3-nitrophenyl)-1,4-dihydropyridine-3,5-dicarboxylate] | > 1100 | 9 ± 10 | 12 ± 12 | 12 ± 12 |
| O=C(NCCO[N+](=O)[O-])c1cccnc1 [NC, Nicorandil] |  | 28 ± 9 | 29 ± 8 | 38 ± 11 |
| O=[N+]([O-])OCC(CO[N+](=O)[O-])O[N+](=O)[O-] [TNG, nitroglycerin] |  | 73 ± 17 | 66 ± 17 | 71 ± 4 |
